# Experimental data published in US20100015126A1, “Methods of Binding of Cross-Beta Structures By Chaperones” (priority 2006, published 2010).
# What was measured:
# [1] = target: T1, human mitochondrial HSP60 (Homo sapiens, UniProt P10809); assay: Competition ELISA: HSP60 binding under influence of ThT or Congo red; details: concentration series of compound
# T1 construct: Dr. W. van Eden, Utrecht University; host or cells: E. coli
# [2] = target: T2, Escherichia coli HSP70 family member DnaK (Escherichia coli, UniProt P0A6Y8); assay: Competition ELISA: DnaK binding under influence of ThT and Congo red; details: 20 μg/ml DnaK; 1 mM dye
# T2 construct: purchased Stressgen (Ann Arbor, Mich., USA) SPP-630
# T2 sequence (P0A6Y8 whole entry): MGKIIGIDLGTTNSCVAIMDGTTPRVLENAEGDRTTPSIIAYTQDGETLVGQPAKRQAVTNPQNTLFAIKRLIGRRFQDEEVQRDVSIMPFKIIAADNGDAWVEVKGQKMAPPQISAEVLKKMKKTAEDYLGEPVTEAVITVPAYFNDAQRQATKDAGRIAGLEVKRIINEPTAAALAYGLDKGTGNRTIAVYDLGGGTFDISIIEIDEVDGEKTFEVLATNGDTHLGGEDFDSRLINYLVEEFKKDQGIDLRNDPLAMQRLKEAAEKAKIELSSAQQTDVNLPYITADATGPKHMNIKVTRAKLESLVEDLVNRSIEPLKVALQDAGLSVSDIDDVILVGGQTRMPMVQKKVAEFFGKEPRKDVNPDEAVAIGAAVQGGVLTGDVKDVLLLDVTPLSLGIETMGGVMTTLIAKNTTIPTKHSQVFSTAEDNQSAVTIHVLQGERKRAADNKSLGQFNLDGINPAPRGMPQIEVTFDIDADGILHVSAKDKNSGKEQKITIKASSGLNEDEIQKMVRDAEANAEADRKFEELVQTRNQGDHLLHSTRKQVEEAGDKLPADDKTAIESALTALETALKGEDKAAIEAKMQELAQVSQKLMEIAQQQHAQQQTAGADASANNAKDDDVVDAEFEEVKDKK
# Protocol: Binding of chaperones to immobilized (misfolded) protein ligands was determined using an enzyme linked immuno sorbent assay (ELISA) approach. For this purpose 50 μl/well of potential ligands at indicated concentrations or coat buffer only for control and background measurement purposes, were coated overnight at 4° C. or coated for 1 h at room temperature, with motion, in 50 mM NaHCO3 pH 9.6 (coat buffer). In general, ligands were coated at 5 μg/ml, unless stated otherwise. For example, BiP binding peptides 6BB# and oxLDL were coated at 50 μg/ml. Native haemoglobin (Sigma-Aldrich, H7379), albumin, IgIV Gammagard and ovalbumin controls were prepared from lyophilized stocks. The controls were prepared by dissolving lyophilized proteins at 1 mg/ml in PBS upon resuspending by pipetting, followed by a 30 minutes period at the roller device, at room temperature. The protein solutions were centrifuged for 10 minutes at 16,000*g and diluted in coat buffer. After coating the plates were washed at least three times with 50 mM Tris-HCl pH 7.3, 150 mM NaCl, 0.1% v/v Tween20, and blocked with Blocking reagent (Roche Diagnostics, Almere, The Netherlands; 11112589001), for 1 h at room temperature, with motion. Plates were washed three times and incubated in triplicate with indicated chaperone dilution series, at 50 μl/well, for 1 h at room temperature, with constant motion. For HSP90, 5 mM DTT is incorporated in the binding buffer (PBS/0.1% Tween20) to avoid unwanted disulfide bond formation of the HSP90. Plates were washed three times and incubated with anti-FLAG antibody (mouse antibody, M2, peroxidase conjugate; Sigma, A-8592) for BiP-FLAG-His, anti-His-tag antibody (Mouse Monoclonal Antibody, Cat. No. 70796, Novagen [0.2 mg/ml]) for HSP60, a 1:1 mix of 500-fold diluted anti-HSP90beta antibodies (Stressgen, SPA-643 [mouse monoclonal IgM], SPA-646 [rabbit polyclonal]) for HSP90 and an anti-DnaK antibody (Stressgen, 023SPA-880D [mouse monoclonal antibody]) for DnaK. After four wash cycles, secondary antibodies were added to the wells when required, 50 μl/well, for 45′ at room temperature, with motion. RAMPO and SWARPO were used at 3000 times dilution. […] In a second experiment with more immobilized misfolded proteins and controls, the detection of bound HSP90 with the mix of two anti-HSP90 antibodies was achieved by mixing 1:1500 SWARPO with 1:3000 RAMPO. After 5 washes with wash buffer followed by two washes with PBS, binding of antibodies was assessed. […] Plates were read at 450 nm. Triplicates were averaged and standard deviations calculated. […] Subsequently, sub-optimal concentrations of chaperones for binding to misfolded protein ligands are determined, and these concentrations are used for inhibition studies. […]
# T1 sequence (P10809 27-573): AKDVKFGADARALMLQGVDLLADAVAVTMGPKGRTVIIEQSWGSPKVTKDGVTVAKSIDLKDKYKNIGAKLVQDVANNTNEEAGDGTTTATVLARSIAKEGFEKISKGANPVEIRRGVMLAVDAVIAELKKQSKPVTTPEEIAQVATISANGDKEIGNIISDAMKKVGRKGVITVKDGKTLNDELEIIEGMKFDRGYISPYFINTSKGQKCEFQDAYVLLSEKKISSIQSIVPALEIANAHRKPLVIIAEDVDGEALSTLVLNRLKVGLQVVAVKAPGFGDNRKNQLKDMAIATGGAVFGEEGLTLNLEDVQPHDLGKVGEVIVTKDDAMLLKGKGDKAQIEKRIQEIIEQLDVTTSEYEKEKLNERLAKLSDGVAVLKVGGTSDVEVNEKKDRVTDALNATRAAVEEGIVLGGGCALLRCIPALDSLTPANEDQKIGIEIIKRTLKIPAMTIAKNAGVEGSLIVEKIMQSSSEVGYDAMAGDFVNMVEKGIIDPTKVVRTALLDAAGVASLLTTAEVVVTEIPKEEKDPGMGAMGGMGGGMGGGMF
SMILES,Binding of HSP60 to misfolded IgIV (dIgIV-86) under influence of compound ([1]; 10 μg/ml HSP60),Binding of HSP60 to Aβ42 under influence of compound ([1]; 10 or 30 μg/ml HSP60),Binding of DnaK to immobilized HbAGE under influence of compound [2],Binding of DnaK to immobilized dIgIV-86 under influence of compound [2],Binding of HSP60 to BSA-AGE under influence of compound ([1]; 10 or 30 μg/ml HSP60)
"Cc1ccc2c(c1)sc(-c1ccc(N(C)C)cc1)[n+]2C.[Cl-] [ThT, Thioflavin T]",stimulates,inhibit,inhibit,inhibit,
Nc1c(/N=N/c2ccc(-c3ccc(/N=N/c4cc(S(=O)(=O)O)c5ccccc5c4N)cc3)cc2)cc(S(=O)(=O)O)c2ccccc12 [Congo red],,inhibit,inhibit,inhibit,inhibited
